Laboratory results reported in ChEMBL document CHEMBL1201862, “PubChem BioAssay data set” (2004).
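These data come from cells grown in 96-well plates and exposed to compound for 48 hours at five concentrations. Abbreviation: GI50, concentration required for 50% inhibition of growth.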 Active and inactive are the calls of the source. Cut-off read from the data, not from the text of the source: active = GI50 up to about 1.1 µM and inactive = higher.

Experiments:
Test in all cases: growth of human tumour cells (NCI), 48 h
OVCAR-4 = tested on: OVCAR-4
OVCAR-3 = tested on: OVCAR-3
SW-620 = tested on: SW-620
A498 = tested on: A498
RXF 393 = tested on: RXF 393
NCI-H460 = tested on: NCI-H460
SK-MEL-2 = tested on: SK-MEL-2
NCI-H23 = tested on: NCI-H23
SK-MEL-28 = tested on: SK-MEL-28
TK-10 = tested on: TK-10
SF-268 = tested on: SF-268
OVCAR-8 = tested on: OVCAR-8
Malme-3M = tested on: Malme-3M
HCT-116 = tested on: HCT-116
MOLT-4 = tested on: MOLT-4
EKVX = tested on: EKVX
UACC-62 = tested on: UACC-62
Hs-578T = tested on: Hs-578T
NCI/ADR-RES = tested on: NCI/ADR-RES
MDA-MB-231 = tested on: MDA-MB-231

SMILES	GI50 (OVCAR-4)	GI50 (OVCAR-3)	GI50 (SW-620)	GI50 (A498)	GI50 (RXF 393)	GI50 (NCI-H460)	GI50 (SK-MEL-2)	GI50 (NCI-H23)	GI50 (SK-MEL-28)	GI50 (TK-10)	GI50 (SF-268)	GI50 (OVCAR-8)	GI50 (Malme-3M)	GI50 (HCT-116)	GI50 (MOLT-4)	GI50 (EKVX)	GI50 (UACC-62)	GI50 (Hs-578T)	GI50 (NCI/ADR-RES)	GI50 (MDA-MB-231)
COc1ccc(OC)c(NCC#N)c1	> 100 µM (inactive)	> 100 µM (inactive)	> 100 µM (inactive)	> 100 µM (inactive)	> 100 µM (inactive)	> 100 µM (inactive)	> 100 µM (inactive)	> 100 µM (inactive)	> 100 µM (inactive)	> 100 µM (inactive)	> 100 µM (inactive)	> 100 µM (inactive)	> 100 µM (inactive)	> 100 µM (inactive)	> 100 µM (inactive)	> 100 µM (inactive)	> 100 µM (inactive)			
Oc1ccc2ccccc2c1/N=N/c1cc(Cl)ccc1Cl	13.9 µM (inactive)	19.5 µM (inactive)	32.6 µM (inactive)		27 µM (inactive)		28.4 µM (inactive)	44.5 µM (inactive)	> 50 µM (inactive)	16 µM (inactive)	17.1 µM (inactive)	10.4 µM (inactive)	24.1 µM (inactive)	15.6 µM (inactive)	15.4 µM (inactive)	9.06 µM (inactive)	15.9 µM (inactive)	10.1 µM (inactive)	31.6 µM (inactive)	11.8 µM (inactive)
CC(=O)OCCOCNC(=S)N/N=C/c1cc([N+](=O)[O-])ccc1O	84.5 µM (inactive)	42.5 µM (inactive)	84.9 µM (inactive)	> 100 µM (inactive)	> 100 µM (inactive)	> 100 µM (inactive)	> 100 µM (inactive)	> 100 µM (inactive)	> 100 µM (inactive)	> 100 µM (inactive)	77.4 µM (inactive)	90.2 µM (inactive)	> 100 µM (inactive)	64.3 µM (inactive)		> 100 µM (inactive)	69.8 µM (inactive)			
CCN(CCCOc1ccccc1)CCN(CC)CCCOc1ccccc1	18.6 µM (inactive)	14.8 µM (inactive)	20.8 µM (inactive)		13.4 µM (inactive)	8.38 µM (inactive)	17.9 µM (inactive)	18.8 µM (inactive)	15.1 µM (inactive)	12.7 µM (inactive)	12.6 µM (inactive)	15.7 µM (inactive)	15.8 µM (inactive)	11.7 µM (inactive)	2.57 µM (inactive)	12.7 µM (inactive)	14.2 µM (inactive)	13.5 µM (inactive)	20 µM (inactive)	16.1 µM (inactive)
Cc1c(Cl)cccc1NC(=O)CC1C(=O)Nc2ccccc2S1(=O)=O (stereo not drawn)	20.5 µM (inactive)	16.6 µM (inactive)	20 µM (inactive)	15.3 µM (inactive)	14.7 µM (inactive)	14.7 µM (inactive)	19.4 µM (inactive)	18.1 µM (inactive)	18.6 µM (inactive)	25.8 µM (inactive)	19.6 µM (inactive)	18.4 µM (inactive)	17.6 µM (inactive)	15.8 µM (inactive)	7.83 µM (inactive)	25.6 µM (inactive)	7.52 µM (inactive)			
CC(=O)OCCOCNC(=S)N/N=C/c1ccc2ccccc2n1	63 µM (inactive)	35.3 µM (inactive)	36.1 µM (inactive)	> 100 µM (inactive)	46.2 µM (inactive)	27.5 µM (inactive)	> 100 µM (inactive)	73.1 µM (inactive)	70.1 µM (inactive)	69 µM (inactive)	34.9 µM (inactive)	37.1 µM (inactive)	55.5 µM (inactive)	42.2 µM (inactive)	> 100 µM (inactive)	32.7 µM (inactive)	21.8 µM (inactive)			
CCOC(=O)c1c(N2CCCC2)ncn(-c2ccccc2)c1=S	> 100 µM (inactive)	49.4 µM (inactive)	> 100 µM (inactive)	> 100 µM (inactive)	> 100 µM (inactive)	> 100 µM (inactive)	> 100 µM (inactive)		> 100 µM (inactive)	> 100 µM (inactive)	28.4 µM (inactive)	> 100 µM (inactive)	57.5 µM (inactive)	> 100 µM (inactive)	> 100 µM (inactive)	> 100 µM (inactive)	> 100 µM (inactive)	> 100 µM (inactive)	> 100 µM (inactive)	
CCCCCCCN(CCCCCCC)CC(O)c1cc2ccccc2c2cc(Br)ccc12 (stereo not drawn)	> 100 µM (inactive)	17.9 µM (inactive)	23.1 µM (inactive)	> 100 µM (inactive)		23.1 µM (inactive)	33.1 µM (inactive)	36 µM (inactive)	36.6 µM (inactive)	47.6 µM (inactive)	19 µM (inactive)	30.3 µM (inactive)	19.5 µM (inactive)	21.1 µM (inactive)	35.1 µM (inactive)	25.8 µM (inactive)	20.4 µM (inactive)		> 100 µM (inactive)	5.98 µM (inactive)
COc1cc(OC)c2c(c1)C(=O)C(CC1(C)OCCCO1)=CC2=O	7.62 µM (inactive)	8.55 µM (inactive)	7.57 µM (inactive)	18.4 µM (inactive)	3.54 µM (inactive)	18.6 µM (inactive)	15.2 µM (inactive)	13.2 µM (inactive)	11.6 µM (inactive)	12.5 µM (inactive)	13.9 µM (inactive)	9.27 µM (inactive)	8.45 µM (inactive)	5.35 µM (inactive)	2.05 µM (inactive)	14.3 µM (inactive)	5 µM (inactive)			
COc1cc2c(c(OC)c1OC)-c1ccc(OC)c(=O)cc1[C@@H](N(C)C=O)CC2	1.37 µM (inactive)	0.0112 µM (active)	0.0134 µM (active)	0.0209 µM (active)	0.0161 µM (active)	< 0.0179 µM (active)	0.0135 µM (active)	0.0168 µM (active)	< 0.01 µM (active)	1.45 µM (inactive)	0.0219 µM (active)	0.0218 µM (active)	0.0184 µM (active)	0.0173 µM (active)	0.0212 µM (active)	9.2 µM (inactive)	0.0177 µM (active)			
Ic1cc2c(cc1C1SCCCS1)OCO2	> 100 µM (inactive)	> 100 µM (inactive)	> 100 µM (inactive)	> 100 µM (inactive)	> 100 µM (inactive)	> 100 µM (inactive)	> 100 µM (inactive)	64.7 µM (inactive)	> 100 µM (inactive)	> 100 µM (inactive)	> 100 µM (inactive)	> 100 µM (inactive)	> 100 µM (inactive)	> 100 µM (inactive)	> 100 µM (inactive)	> 100 µM (inactive)	> 100 µM (inactive)			
C=C1CCc2occ(C)c2C2C1C1=C(CC(C)C1=O)C1OC12C (stereo not drawn)	> 100 µM (inactive)	> 100 µM (inactive)	> 100 µM (inactive)	> 100 µM (inactive)	> 100 µM (inactive)	> 100 µM (inactive)	> 100 µM (inactive)	> 100 µM (inactive)	> 100 µM (inactive)	> 100 µM (inactive)	> 100 µM (inactive)	> 100 µM (inactive)	> 100 µM (inactive)	83 µM (inactive)	> 100 µM (inactive)	> 100 µM (inactive)	52 µM (inactive)			
CC(=O)OCC1=C(CCC#N)N2C(=O)C(NC(=O)Cc3cccs3)C2[S+]([O-])C1 (stereo not drawn)	> 100 µM (inactive)	> 100 µM (inactive)	> 100 µM (inactive)	> 100 µM (inactive)	> 100 µM (inactive)	> 100 µM (inactive)	> 100 µM (inactive)	> 100 µM (inactive)	> 100 µM (inactive)	> 100 µM (inactive)	> 100 µM (inactive)	> 100 µM (inactive)	> 100 µM (inactive)	> 100 µM (inactive)	> 100 µM (inactive)	> 100 µM (inactive)	> 100 µM (inactive)			
COc1cc2c(c(OC)c1OC)-c1ccc(SC)c(=O)cc1[C@@H](NC(=O)c1ccc(C#N)cc1)CC2	< 0.01 µM (active)	< 0.01 µM (active)	< 0.01 µM (active)	< 0.01 µM (active)	< 0.01 µM (active)	< 0.01 µM (active)	< 0.01 µM (active)	< 0.01 µM (active)	> 79.8 µM (inactive)	3.3 µM (inactive)	< 0.01 µM (active)	< 0.01 µM (active)	< 0.01 µM (active)	< 0.01 µM (active)	< 0.01 µM (active)	< 0.01 µM (active)	< 0.01 µM (active)			
Cc1ccc(/C=N/n2c(=O)[nH]c3ccccc3c2=O)cc1		> 100 µM (inactive)	> 100 µM (inactive)	> 100 µM (inactive)		> 100 µM (inactive)	> 100 µM (inactive)	> 100 µM (inactive)	> 100 µM (inactive)	> 100 µM (inactive)	> 100 µM (inactive)			> 100 µM (inactive)	> 100 µM (inactive)	> 100 µM (inactive)	> 100 µM (inactive)	> 100 µM (inactive)		> 100 µM (inactive)
Cc1ccc([N+](=O)[O-])cc1NC(=O)C(=O)Cc1cc(=O)oc2cc(O)ccc12	> 100 µM (inactive)	> 100 µM (inactive)		> 100 µM (inactive)	28.1 µM (inactive)	83.9 µM (inactive)	> 100 µM (inactive)	> 100 µM (inactive)	33.5 µM (inactive)	> 100 µM (inactive)	32 µM (inactive)	> 100 µM (inactive)	> 100 µM (inactive)	24.2 µM (inactive)	> 100 µM (inactive)	> 100 µM (inactive)	> 100 µM (inactive)			
